In patent publication US8455688B2, “HDAC inhibitors” (Lixte Biotechnology, Inc., priority 2007, dated 2013):
Converted amounts (≈) assume the structure as drawn. Where two headings read alike, the source gives them in different places. Blank lines part the entries; values can stand above or below the compound they belong to.

What was measured:
R. arrhizus = assay: Broth dilution antifungal susceptibility testing, R. arrhizus; type: cell-based, Rhizopus oryzae; conditions: 80% inhibition; for MIC: Rhizopus arrhizus, read-out: minimum inhibitory concentration (MIC)
Protocol: (§1) A total of 23 isolates were tested to include 3 Candida albicans, 3 Candida glabrata, 3 Cryptococcus neoformans, 3 Aspergillus fumigatus, 3 Rhizopus oryzae, 3, Fusarium solani, 3 Pseudallescheria boydii, and 2 […]. All isolates were clinical isolates submitted to the Fungus Testing Laboratory for evaluation. Antifungal susceptibility testing was accomplished according to the methods outlined in the National Committee for Clinical Laboratory Standards, M-27A2, Reference Method for Broth Dilution Antifungal Susceptibility Testing of Yeasts; Approved Standard, and M38-A “Reference Method for Broth Dilution Antifungal Susceptibility Testing of Conidium-Forming Filamentous Fungi; Approved Standard”. This includes testing in RPMI-1640 with glutamine and without bicarbonate, an inoculum size of 0.5-2.5×10^3 for yeasts or […] for moulds, and incubation at 35° C. for 24 and 48 hours. […] Drug concentrations were 0.125-64 μg/ml. A 10 mg portion of each powder was weighed out and added to 1 ml of 100% DMSO for compound 205. The resulting concentration of […] was diluted to a working concentration of 6400 μg/ml for compound 205 in 100% DMSO. All subsequent dilutions were also made using the respective diluents. Final testing concentrations ranged from 0.125-64 μg/ml. The NCCLS recommended medium RPMI-1640 (Hardy Diagnostics, Santa Monica, Calif.) was utilized as the test medium. All isolates in this study were clinical isolates received in the Fungus Testing Laboratory for standard antifungal susceptibility testing and/or identification. Isolates, which were not sent for identification, were confirmed to assure testing integrity. A total of 23 were tested to include 3 Candida albicans, 3 Candida glabrata, 3 Cryptococcus neoformans, 3 Aspergillus fumigatus, 3 Rhizopus oryzae, 3, Fusarium solani, 3 Pseudallescheria boydii, and 2 […]. Minimum inhibitory concentrations (MIC) were determined at the first 24-hour interval where growth could be determined in the drug-free control tube.

S. apiospermum = assay: Broth dilution antifungal susceptibility testing, S. apiospermum; type: cell-based, Pseudallescheria boydii; conditions: 80% inhibition; for MIC: Scedosporium apiospermum, read-out: minimum inhibitory concentration (MIC)
Protocol: as §1

C. albicans = assay: Broth dilution antifungal susceptibility testing, C. albicans; type: cell-based, Candida albicans; conditions: 50% reduction in turbidity; for MIC: Candida albicans, read-out: minimum inhibitory concentration (MIC)
Protocol: as §1

C. neoformans = assay: Broth dilution antifungal susceptibility testing, C. neoformans; type: cell-based; conditions: Cryptococcus neoformans, 50% reduction in turbidity, read-out: minimum inhibitory concentration (MIC)
Protocol: as §1

CP Control = assay: Broth dilution antifungal susceptibility testing, CP Control; type: cell-based; conditions: read-out: minimum inhibitory concentration (MIC)
Protocol: as §1

T. rubrum = assay: Broth dilution antifungal susceptibility testing, T. rubrum; type: cell-based, Trichophyton rubrum; conditions: 80% inhibition; for MIC: Trichophyton rubrum, read-out: minimum inhibitory concentration (MIC)
Protocol: as §1

A. fumigatus = assay: Broth dilution antifungal susceptibility testing, A. fumigatus; type: cell-based, Aspergillus fumigatus; conditions: 80% inhibition; for MIC: Aspergillus fumigatus, read-out: minimum inhibitory concentration (MIC)
Protocol: as §1

C. glabrata = assay: Broth dilution antifungal susceptibility testing, C. glabrata; type: cell-based, Candida glabrata; conditions: 50% reduction in turbidity; for MIC: Nakaseomyces glabratus, read-out: minimum inhibitory concentration (MIC)
Protocol: as §1

F. solani = assay: Broth dilution antifungal susceptibility testing, F. solani; type: cell-based; conditions: Fusarium solani, 80% inhibition, read-out: minimum inhibitory concentration (MIC)
Protocol: as §1

cell line U-87 = assay: Activity against the cell line U-87; type: cell-based, human; conditions: potency on an equimolar basis
[1] = 24 h, isolate 07-2044, 24 hours
[2] = 24 h, isolate 07-2078, 24 hours
[3] = 48 h, isolate 07-2044, 48 hours
[4] = 48 h, isolate 07-2078, 48 hours
[5] = 24 h, isolate 07-1333, 24 hours
[6] = 24 h, isolate 07-1502, 24 hours
[7] = 48 h, isolate 07-1333, 48 hours
[8] = 48 h, isolate 07-1502, 48 hours
[9] = 24 h, isolate 07-3006, 24 hours
[10] = 24 h, isolate 07-3011, 24 hours
[11] = 24 h, isolate 07-3012, 24 hours
[12] = 48 h, isolate 07-3006, 48 hours
[13] = 48 h, isolate 07-3011, 48 hours
[14] = 48 h, isolate 07-3012, 48 hours
[15] = 24 h, isolate 07-2665, 24 hours
[16] = 24 h, isolate 07-2737, 24 hours
[17] = 24 h, isolate 07-2829, 24 hours
[18] = 48 h, isolate 07-2737, 48 hours
[19] = 48 h, isolate 07-2829, 48 hours
[20] = 24 h, isolate 07-1743, 24 hours
[21] = 24 h, isolate 07-2055, 24 hours
[22] = 48 h, isolate 07-1743, 48 hours
[23] = 48 h, isolate 07-2055, 48 hours
[24] = 24 h, isolate 06-4126, 24 hours
[25] = 24 h, isolate 07-2039, 24 hours
[26] = 48 h, isolate 07-2039, 48 hours
[27] = 24 h, isolate 07-2964, 24 hours
[28] = 24 h, isolate 07-2965, 24 hours
[29] = 24 h, isolate 07-3013, 24 hours
[30] = 48 h, isolate 07-2964, 48 hours
[31] = 48 h, isolate 07-2965, 48 hours
[32] = 48 h, isolate 07-3013, 48 hours
[33] = 48 h, isolate 07-1755, 48 hours
[34] = 48 h, isolate 07-1867, 48 hours

MIC (R. arrhizus; 24 h, isolate 07-1870, 24 hours): > 64 µg/mL
MIC (R. arrhizus; [1]): > 64 µg/mL
MIC (R. arrhizus; [2]): > 64 µg/mL
MIC (R. arrhizus; 48 h, isolate 07-1870, 48 hours): > 64 µg/mL
MIC (R. arrhizus; [3]): > 64 µg/mL
MIC (R. arrhizus; [4]): > 64 µg/mL
MIC (S. apiospermum; [5]): 0.5 µg/mL (≈ 1.29 µM)
MIC (S. apiospermum; [6]): 2 µg/mL (≈ 5.15 µM)
MIC (S. apiospermum; 24 h, isolate 07-1601, 24 hours): < 0.125 µg/mL
MIC (S. apiospermum; [7]): 1 µg/mL (≈ 2.57 µM)
MIC (S. apiospermum; [8]): 2 µg/mL (≈ 5.15 µM)
MIC (S. apiospermum; 48 h, isolate 07-1601, 48 hours): 0.5 µg/mL (≈ 1.29 µM)
MIC (C. albicans; [9]): > 64 µg/mL
MIC (C. albicans; [10]): > 64 µg/mL
MIC (C. albicans; [11]): > 64 µg/mL
MIC (C. albicans; [12]): > 64 µg/mL
MIC (C. albicans; [13]): > 64 µg/mL
MIC (C. albicans; [14]): > 64 µg/mL
MIC (C. neoformans; [15]): 4 µg/mL (≈ 10.3 µM)
MIC (C. neoformans; [16]): > 64 µg/mL
MIC (C. neoformans; [17]): > 64 µg/mL
MIC (C. neoformans; 48 h, isolate 07-2665, 48 hours): 4 µg/mL (≈ 10.3 µM)
MIC (C. neoformans; [18]): > 64 µg/mL
MIC (C. neoformans; [19]): > 64 µg/mL
MIC (CP Control; 24 hours): 8 µg/mL (≈ 20.6 µM)
MIC (CP Control; 48 hours): > 64 µg/mL
MIC (T. rubrum; [20]): 1 µg/mL (≈ 2.57 µM)
MIC (T. rubrum; [21]): 1 µg/mL (≈ 2.57 µM)
MIC (T. rubrum; [22]): 1 µg/mL (≈ 2.57 µM)
MIC (T. rubrum; [23]): 1 µg/mL (≈ 2.57 µM)
MIC (A. fumigatus; 24 h, isolate 05-388, 24 hours): 2 µg/mL (≈ 5.15 µM)
MIC (A. fumigatus; [24]): 1 µg/mL (≈ 2.57 µM)
MIC (A. fumigatus; [25]): 1 µg/mL (≈ 2.57 µM)
MIC (A. fumigatus; 48 h, isolate 05-388, 48 hours): > 64 µg/mL
MIC (A. fumigatus; 48 h, isolate 06-4126, 48 hours): > 64 µg/mL
MIC (A. fumigatus; [26]): > 64 µg/mL
MIC (C. glabrata; [27]): > 64 µg/mL
MIC (C. glabrata; [28]): > 64 µg/mL
MIC (C. glabrata; [29]): > 64 µg/mL
MIC (C. glabrata; [30]): > 64 µg/mL
MIC (C. glabrata; [31]): > 64 µg/mL
MIC (C. glabrata; [32]): > 64 µg/mL
MIC (F. solani; 24 h, isolate 07-1399, 24 hours): > 64 µg/mL
MIC (F. solani; 24 h, isolate 07-1755, 24 hours): > 64 µg/mL
MIC (F. solani; 24 h, isolate 07-1867, 24 hours): > 64 µg/mL
MIC (F. solani; 48 h, isolate 07-1399, 48 hours): > 64 µg/mL
MIC (F. solani; [33]): > 64 µg/mL
MIC (F. solani; [34]): > 64 µg/mL
SMILES: O=C(NCCCCCCNC(=O)c1ccccc1S)c1ccccc1S [Compound 204, Bis-1,6-(2-mercaptobenzoylamino)hexane]

MIC (R. arrhizus; [1]): 8 µg/mL (≈ 23.4 µM)
MIC (R. arrhizus; [2]): > 64 µg/mL
MIC (R. arrhizus; [3]): > 64 µg/mL
MIC (R. arrhizus; [4]): > 64 µg/mL
minimum inhibitory concentration (MIC) (R. arrhizus; isolate 07-2044, 24 hours): 4 µg/mL (≈ 11.7 µM)
MIC (S. apiospermum; [5]): 1 µg/mL (≈ 2.92 µM)
MIC (S. apiospermum; [6]): 2 µg/mL (≈ 5.84 µM)
MIC (S. apiospermum; [7]): 1 µg/mL (≈ 2.92 µM)
MIC (S. apiospermum; [8]): 4 µg/mL (≈ 11.7 µM)
minimum inhibitory concentration (MIC) (S. apiospermum; isolate 07-1333, 24 hours): 2 µg/mL (≈ 5.84 µM)
minimum inhibitory concentration (MIC) (S. apiospermum; isolate 07-1333, 48 hours): 2 µg/mL (≈ 5.84 µM)
minimum inhibitory concentration (MIC) (S. apiospermum; isolate 07-1502, 48 hours): 2 µg/mL (≈ 5.84 µM)
MIC (C. albicans; [9]): 8 µg/mL (≈ 23.4 µM)
MIC (C. albicans; [10]): 4 µg/mL (≈ 11.7 µM)
MIC (C. albicans; [11]): 4 µg/mL (≈ 11.7 µM)
MIC (C. albicans; [12]): > 64 µg/mL
MIC (C. albicans; [13]): > 64 µg/mL
MIC (C. albicans; [14]): > 64 µg/mL
minimum inhibitory concentration (MIC) (C. albicans; isolate 07-3006, 24 hours): 4 µg/mL (≈ 11.7 µM)
minimum inhibitory concentration (MIC) (C. albicans; isolate 07-3011, 24 hours): 8 µg/mL (≈ 23.4 µM)
minimum inhibitory concentration (MIC) (C. albicans; isolate 07-3012, 24 hours): 8 µg/mL (≈ 23.4 µM)
MIC (C. neoformans; [15]): 2 µg/mL (≈ 5.84 µM)
MIC (C. neoformans; [16]): 2 µg/mL (≈ 5.84 µM)
MIC (C. neoformans; [17]): 2 µg/mL (≈ 5.84 µM)
MIC (C. neoformans; [18]): 4 µg/mL (≈ 11.7 µM)
MIC (C. neoformans; [19]): 2 µg/mL (≈ 5.84 µM)
MIC (CP Control; 24 hours): 8 µg/mL (≈ 23.4 µM)
MIC (CP Control; 48 hours): > 64 µg/mL
MIC (T. rubrum; [20]): 2 µg/mL (≈ 5.84 µM)
MIC (T. rubrum; [21]): 2 µg/mL (≈ 5.84 µM)
MIC (T. rubrum; [22]): 2 µg/mL (≈ 5.84 µM)
MIC (T. rubrum; [23]): 2 µg/mL (≈ 5.84 µM)
minimum inhibitory concentration (MIC) (T. rubrum; isolate 07-1743, 24 hours): 1 µg/mL (≈ 2.92 µM)
minimum inhibitory concentration (MIC) (T. rubrum; isolate 07-1743, 48 hours): 1 µg/mL (≈ 2.92 µM)
minimum inhibitory concentration (MIC) (T. rubrum; isolate 07-2055, 24 hours): 1 µg/mL (≈ 2.92 µM)
minimum inhibitory concentration (MIC) (T. rubrum; isolate 07-2055, 48 hours): 1 µg/mL (≈ 2.92 µM)
MIC (A. fumigatus; 24 h, isolate 05-388, 24 hours): 1 µg/mL (≈ 2.92 µM)
MIC (A. fumigatus; [24]): 0.5 µg/mL (≈ 1.46 µM)
MIC (A. fumigatus; [25]): 1 µg/mL (≈ 2.92 µM)
MIC (A. fumigatus; 48 h, isolate 05-388, 48 hours): > 64 µg/mL
MIC (A. fumigatus; [26]): > 64 µg/mL
minimum inhibitory concentration (MIC) (A. fumigatus; isolate 06-4126, 24 hours): 1 µg/mL (≈ 2.92 µM)
MIC (C. glabrata; [27]): 2 µg/mL (≈ 5.84 µM)
MIC (C. glabrata; [28]): 1 µg/mL (≈ 2.92 µM)
MIC (C. glabrata; [29]): 2 µg/mL (≈ 5.84 µM)
MIC (C. glabrata; [30]): > 64 µg/mL
MIC (C. glabrata; [31]): > 64 µg/mL
MIC (C. glabrata; [32]): > 64 µg/mL
minimum inhibitory concentration (MIC) (C. glabrata; isolate 07-2964, 24 hours): 4 µg/mL (≈ 11.7 µM)
minimum inhibitory concentration (MIC) (C. glabrata; isolate 07-2965, 24 hours): 2 µg/mL (≈ 5.84 µM)
MIC (F. solani; [33]): > 64 µg/mL
MIC (F. solani; [34]): > 64 µg/mL
SMILES: O=C(CCCCCNC(=O)c1ccccc1S)Nc1ccccc1 [Compound 201, 2-mercapto-N-[5-(phenylcarbamoyl)pentyl]benzamide]
activity against the cell line U-87 (cell line U-87): most potent on an equimolar basis
